Experiments:
Details in all cases: scale 0 to 100
wild oat (Avenafatua) = experiment: Test D postemergence; type: in vivo, Avena fatua
From the text: (§1) Seeds of plant species selected from bluegrass (annual bluegrass, Poa annua), blackgrass (Alopecurus myosuroides), canarygrass (Phalaris minor), chickweed (common chickweed, Stellaria media), cutleaf geranium (Geranium dissectum), galium (catchweed bedstraw, Galium aparine), downy bromegrass (Bromus tectorum), field poppy (Papaver rhoeas), field violet (Viola arvensis), green foxtail (Setaria viridis), deadnettle (henbit deadnettle, Lamium amplexicaule), Italian ryegrass (Lolium multiflorum), kochia (Kochia scoparia), lambsquarters (Chenopodium album), oilseed rape (Brassica napus), pigweed (Amaranthus retroflexus), chamomile (scentless chamomile, Matricaria inodora), Russian thistle (Salsola kali), speedwell (bird's-eye speedwell, Veronica persica), spring barley (Hordeum vulgare), spring wheat (Triticum aestivum), wild buckwheat (Polygonum convolvulus), wild mustard (Sinapis arvensis), wild oat (Avenafatua), wild radish (Raphanus raphanistrum), windgrass (Apera spica-venti), winter barley (Hordeum vulgare), and winter wheat (Triticum aestivum) were planted into a silt loam soil and treated preemergence with test chemicals formulated in a non-phytotoxic solvent mixture which included a surfactant.
(§2) At the same time, these species were planted in pots containing Redi-Earth® planting medium (Scotts Company, 14111 Scottslawn Road, Marysville, Ohio 43041) comprising spaghnum peat moss, vermiculite, wetting agent and starter nutrients and treated with postemergence applications of the test chemicals formulated in the same manner. Plants ranged in height from 2 to 18 cm (1- to 4-leaf stage). Treated plants and controls were maintained in a controlled growth environment for 14 to 21 days after which time all species were compared to controls and visually evaluated. Plant response ratings, summarized in Table D, are based on a scale of 0 to 100 where 0 is no effect and 100 is complete control. A dash (-) response means no test result.

[1] = tested on: bluegrass (annual bluegrass, Poa annua); experiment: Test D preemergence; type: in vivo
From the text: as §1, §2

[2] = tested on: chamomile (scentless chamomile, Matricaria inodora); experiment: Test D preemergence; type: in vivo
From the text: as §1, §2

[3] = tested on: canarygrass (Phalaris minor); experiment: Test D preemergence; type: in vivo
From the text: as §1, §2

[4] = tested on: chickweed (common chickweed, Stellaria media); experiment: Test D preemergence; type: in vivo
From the text: as §1, §2

[5] = tested on: spring wheat (Triticum aestivum); experiment: Test D preemergence; type: in vivo
From the text: as §1, §2

[6] = tested on: galium (catchweed bedstraw, Galium aparine); experiment: Test D preemergence; type: in vivo
From the text: as §1, §2

[7] = tested on: pigweed (Amaranthus retroflexus); experiment: Test D preemergence; type: in vivo
From the text: as §1, §2

[8] = tested on: spring barley (Hordeum vulgare); experiment: Test D preemergence; type: in vivo
From the text: as §1, §2

[9] = tested on: field poppy (Papaver rhoeas); experiment: Test D preemergence; type: in vivo
From the text: as §1, §2

[10] = tested on: Russian thistle (Salsola kali); experiment: Test D preemergence; type: in vivo
From the text: as §1, §2

[11] = tested on: ragweed (common ragweed, Ambrosia elatior); experiment: Test E preemergence; type: in vivo
Procedure, shortened: (§3)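 Preemergence: seeds in silt loam treated with compound in non-phytotoxic solvent with surfactant. Postemergence: plants at 1- to 4-leaf stage (2–18 cm) in peat-based medium sprayed likewise. Greenhouse 14–21 days, then visual rating vs controls, 0 (no effect) to 100 (complete control).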

kochia (Kochia scoparia) = experiment: Test E preemergence; type: in vivo
Procedure, shortened: as §3

[12] = tested on: velvetleaf (Abutilon theophrasti); experiment: Test E preemergence; type: in vivo
Procedure, shortened: as §3

## N#Cc1cccc(Oc2ncc(Cl)cn2)c1Oc1ncc(Cl)cn1 [Compound 3, 2,3-bis[(5-chloro-2-pyrimidinyl)oxy]benzonitrile]
Wild oat (Avenafatua); 16 g ai/ha
  Plant response rating, Oat, Wild: 15
Wild oat (Avenafatua); 31 g ai/ha
  Plant response rating, Oat, Wild: 15
Wild oat (Avenafatua); 62 g ai/ha
  Plant response rating, Oat, Wild: 15
Wild oat (Avenafatua); 125 g ai/ha
  Plant response rating, Oat, Wild: 20
[1]; 16 g ai/ha
  Plant response rating, Bluegrass: 0
[1]; 31 g ai/ha
  Plant response rating, Bluegrass: 0
[1]; 62 g ai/ha
  Plant response rating, Bluegrass: 25
[1]; 125 g ai/ha
  Plant response rating, Bluegrass: 85
[2]; 16 g ai/ha
  Plant response rating, Chamomile: 10
[2]; 31 g ai/ha
  Plant response rating, Chamomile: 20
[2]; 62 g ai/ha
  Plant response rating, Chamomile: 35
[2]; 125 g ai/ha
  Plant response rating, Chamomile: 85
[3]; 16 g ai/ha
  Plant response rating, Canarygrass: 0
[3]; 31 g ai/ha
  Plant response rating, Canarygrass: 5
[3]; 62 g ai/ha
  Plant response rating, Canarygrass: 20
[3]; 125 g ai/ha
  Plant response rating, Canarygrass: 80
[4]; 16 g ai/ha
  Plant response rating, Chickweed: 100
[4]; 31 g ai/ha
  Plant response rating, Chickweed: 100
[4]; 62 g ai/ha
  Plant response rating, Chickweed: 100
[4]; 125 g ai/ha
  Plant response rating, Chickweed: 100
[5]; 16 g ai/ha
  Plant response rating, Wheat, Spring: 0
[5]; 31 g ai/ha
  Plant response rating, Wheat, Spring: 0
[5]; 62 g ai/ha
  Plant response rating, Wheat, Spring: 10
[5]; 125 g ai/ha
  Plant response rating, Wheat, Spring: 20
[6]; 16 g ai/ha
  Plant response rating, Galium: 20
[6]; 31 g ai/ha
  Plant response rating, Galium: 100
[6]; 62 g ai/ha
  Plant response rating, Galium: 100
[6]; 125 g ai/ha
  Plant response rating, Galium: 100
[7]; 16 g ai/ha
  Plant response rating, Pigweed: 100
[7]; 31 g ai/ha
  Plant response rating, Pigweed: 100
[7]; 62 g ai/ha
  Plant response rating, Pigweed: 100
[7]; 125 g ai/ha
  Plant response rating, Pigweed: 100
[8]; 16 g ai/ha
  Plant response rating, Barley, Spring: 0
[8]; 31 g ai/ha
  Plant response rating, Barley, Spring: 0
[8]; 62 g ai/ha
  Plant response rating, Barley, Spring: 0
[8]; 125 g ai/ha
  Plant response rating, Barley, Spring: 40
[9]; 16 g ai/ha
  Plant response rating, Field Poppy: 90
[9]; 31 g ai/ha
  Plant response rating, Field Poppy: 100
[9]; 62 g ai/ha
  Plant response rating, Field Poppy: 100
[9]; 125 g ai/ha
  Plant response rating, Field Poppy: 100

## Fc1cnc(Oc2c(Br)cccc2Oc2ncc(Cl)cn2)nc1 [Compound 22]
Wild oat (Avenafatua); 16 g ai/ha
  Plant response rating, Oat, Wild: 10
Wild oat (Avenafatua); 31 g ai/ha
  Plant response rating, Oat, Wild: 25
Wild oat (Avenafatua); 62 g ai/ha
  Plant response rating, Oat, Wild: 35
Wild oat (Avenafatua); 125 g ai/ha
  Plant response rating, Oat, Wild: 45
[1]; 16 g ai/ha
  Plant response rating, Bluegrass: 0
[1]; 31 g ai/ha
  Plant response rating, Bluegrass: 20
[1]; 62 g ai/ha
  Plant response rating, Bluegrass: 60
[1]; 125 g ai/ha
  Plant response rating, Bluegrass: 90
[2]; 16 g ai/ha
  Plant response rating, Chamomile: 30
[2]; 31 g ai/ha
  Plant response rating, Chamomile: 40
[2]; 62 g ai/ha
  Plant response rating, Chamomile: 55
[2]; 125 g ai/ha
  Plant response rating, Chamomile: 100
[3]; 16 g ai/ha
  Plant response rating, Canarygrass: 10
[3]; 31 g ai/ha
  Plant response rating, Canarygrass: 25
[3]; 62 g ai/ha
  Plant response rating, Canarygrass: 35
[3]; 125 g ai/ha
  Plant response rating, Canarygrass: 55
[4]; 16 g ai/ha
  Plant response rating, Chickweed: 10
[4]; 31 g ai/ha
  Plant response rating, Chickweed: 25
[4]; 62 g ai/ha
  Plant response rating, Chickweed: 100
[4]; 125 g ai/ha
  Plant response rating, Chickweed: 100
[5]; 16 g ai/ha
  Plant response rating, Wheat, Spring: 0
[5]; 31 g ai/ha
  Plant response rating, Wheat, Spring: 5
[5]; 62 g ai/ha
  Plant response rating, Wheat, Spring: 15
[5]; 125 g ai/ha
  Plant response rating, Wheat, Spring: 35
[6]; 16 g ai/ha
  Plant response rating, Galium: 60
[6]; 31 g ai/ha
  Plant response rating, Galium: 65
[6]; 62 g ai/ha
  Plant response rating, Galium: 75
[6]; 125 g ai/ha
  Plant response rating, Galium: 100
[7]; 16 g ai/ha
  Plant response rating, Pigweed: 75
[7]; 31 g ai/ha
  Plant response rating, Pigweed: 70
[7]; 62 g ai/ha
  Plant response rating, Pigweed: 100
[7]; 125 g ai/ha
  Plant response rating, Pigweed: 100
[8]; 16 g ai/ha
  Plant response rating, Barley, Spring: 0
[8]; 31 g ai/ha
  Plant response rating, Barley, Spring: 5
[8]; 62 g ai/ha
  Plant response rating, Barley, Spring: 15
[8]; 125 g ai/ha
  Plant response rating, Barley, Spring: 65
[9]; 16 g ai/ha
  Plant response rating, Field Poppy: 65
[9]; 31 g ai/ha
  Plant response rating, Field Poppy: 95
[9]; 62 g ai/ha
  Plant response rating, Field Poppy: 100
[9]; 125 g ai/ha
  Plant response rating, Field Poppy: 100
[10]; 16 g ai/ha
  Plant response rating, Russian Thistle: 0
[10]; 31 g ai/ha
  Plant response rating, Russian Thistle: 0
[10]; 62 g ai/ha
  Plant response rating, Russian Thistle: 5
[10]; 125 g ai/ha
  Plant response rating, Russian Thistle: 5

## Fc1cccc(Oc2ncc(C(F)(F)F)cn2)c1Oc1ncc(Cl)cn1 [Compound 42, 5-chloro-2-[2-fluoro-6-[[5-(trifluoromethyl)-2-pyrimidinyl]oxy]phenoxy]pyrimidine]
[11]; 16 g ai/ha
  Plant response rating, Ragweed: 0
[11]; 31 g ai/ha
  Plant response rating, Ragweed: 20
[11]; 62 g ai/ha
  Plant response rating, Ragweed: 65
[11]; 125 g ai/ha
  Plant response rating, Ragweed: 100
Kochia (Kochia scoparia); 16 g ai/ha
  Plant response rating, Kochia: 80
Kochia (Kochia scoparia); 31 g ai/ha
  Plant response rating, Kochia: 90
Kochia (Kochia scoparia); 62 g ai/ha
  Plant response rating, Kochia: 100
Kochia (Kochia scoparia); 125 g ai/ha
  Plant response rating, Kochia: 100
[12]; 16 g ai/ha
  Plant response rating, Velvetleaf: 75
[12]; 31 g ai/ha
  Plant response rating, Velvetleaf: 80
[12]; 62 g ai/ha
  Plant response rating, Velvetleaf: 100
[12]; 125 g ai/ha
  Plant response rating, Velvetleaf: 100
Wild oat (Avenafatua); 16 g ai/ha
  Plant response rating, Oat, Wild: 25
Wild oat (Avenafatua); 31 g ai/ha
  Plant response rating, Oat, Wild: 45
Wild oat (Avenafatua); 62 g ai/ha
  Plant response rating, Oat, Wild: 40
Wild oat (Avenafatua); 125 g ai/ha
  Plant response rating, Oat, Wild: 70
[1]; 16 g ai/ha
  Plant response rating, Bluegrass: 10
[1]; 31 g ai/ha
  Plant response rating, Bluegrass: 0
[1]; 62 g ai/ha
  Plant response rating, Bluegrass: 45
[1]; 125 g ai/ha
  Plant response rating, Bluegrass: 90
[3]; 16 g ai/ha
  Plant response rating, Canarygrass: 15
[3]; 31 g ai/ha
  Plant response rating, Canarygrass: 35
[3]; 62 g ai/ha
  Plant response rating, Canarygrass: 35
[3]; 125 g ai/ha
  Plant response rating, Canarygrass: 100
[4]; 16 g ai/ha
  Plant response rating, Chickweed: 70
[4]; 31 g ai/ha
  Plant response rating, Chickweed: 100
[4]; 62 g ai/ha
  Plant response rating, Chickweed: 100
[4]; 125 g ai/ha
  Plant response rating, Chickweed: 100
[5]; 16 g ai/ha
  Plant response rating, Wheat, Spring: 0
[5]; 31 g ai/ha
  Plant response rating, Wheat, Spring: 0
[5]; 62 g ai/ha
  Plant response rating, Wheat, Spring: 15
[5]; 125 g ai/ha
  Plant response rating, Wheat, Spring: 65
[6]; 16 g ai/ha
  Plant response rating, Galium: 65
[6]; 31 g ai/ha
  Plant response rating, Galium: 70
[6]; 62 g ai/ha
  Plant response rating, Galium: 100
[6]; 125 g ai/ha
  Plant response rating, Galium: 100
[7]; 16 g ai/ha
  Plant response rating, Pigweed: 100
[7]; 31 g ai/ha
  Plant response rating, Pigweed: 100
[7]; 62 g ai/ha
  Plant response rating, Pigweed: 100
[7]; 125 g ai/ha
  Plant response rating, Pigweed: 100
[8]; 16 g ai/ha
  Plant response rating, Barley, Spring: 0
[8]; 31 g ai/ha
  Plant response rating, Barley, Spring: 35
[8]; 62 g ai/ha
  Plant response rating, Barley, Spring: 15
[8]; 125 g ai/ha
  Plant response rating, Barley, Spring: 65
[10]; 16 g ai/ha
  Plant response rating, Russian Thistle: 0
[10]; 31 g ai/ha
  Plant response rating, Russian Thistle: 20
[10]; 62 g ai/ha
  Plant response rating, Russian Thistle: 15
[10]; 125 g ai/ha
  Plant response rating, Russian Thistle: 55

From patent publication US20170190671A1, “BIS(ARYL)CATECHOL DERIVATIVES AS HERBICIDES” (E I DU PONT DE NEMOURS AND COMPANY, priority 2014, published 2017)
